We go through ten compounds from patent publication US20250304596A1, “PYRAZINE DERIVATIVES AND USES THEREOF” (FOGHORN THERAPEUTICS INC., priority 2022, published 2025).

In one assay the target is T1, HiBit-BRM fusion protein (Homo sapiens, UniProt P51531).
T1 construct: expressed in transfected cells
Description: HiBiT-BRM cell-based degradation assay (Nano-Glo HiBiT Lytic Detection, 24 h). The note with it: stable HeLa cell line expressing HiBiT-BRM; for DC50: read-out: BRM HiBit Degradation IC50. Summed up:
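A stable HeLa line expressing HiBiT-BRM was treated for 24 h with compound in a 10-point, 3-fold series (30 μM final top dose). Remaining HiBiT-BRM was read by lytic LgBiT complementation luminescence. % degradation was normalised to DMSO (high control) and 2 μM reference BRM/BRG1 degrader (low control).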
(HiBiT is a short tag that completes a luciferase, so light tracks the accessible tagged protein.)

Assay [1] deals with T2, HiBit-BRG1 fusion protein (Homo sapiens, UniProt P51532).
T2 construct: expressed in transfected cells
Put plainly: HiBiT-BRG1 cell-based degradation assay (Nano-Glo HiBiT Lytic Detection, 24 h). The note with it: stable HeLa cell line expressing HiBit-BRG1 and LgBit; for Dmax: read-out: BRG1 HiBit Degradation Maximum (%); for DC50: read-out: BRMG1 HiBit Degradation IC50. Summed up:
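HeLa cells stably expressing HiBit-BRG1 and LgBit, treated 24 h with 3-fold dilutions (10 points, duplicate, 30 μM final top dose). Luminescence read after Nano-Glo HiBiT lytic reagent; % degradation scaled between DMSO (high) and 2 μM reference BRM/BRG1 degrader (low control).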

A value given as a limit tells only on which side of the number the result lay.

T2 sequence (P51532 whole entry, the tested form may be a part): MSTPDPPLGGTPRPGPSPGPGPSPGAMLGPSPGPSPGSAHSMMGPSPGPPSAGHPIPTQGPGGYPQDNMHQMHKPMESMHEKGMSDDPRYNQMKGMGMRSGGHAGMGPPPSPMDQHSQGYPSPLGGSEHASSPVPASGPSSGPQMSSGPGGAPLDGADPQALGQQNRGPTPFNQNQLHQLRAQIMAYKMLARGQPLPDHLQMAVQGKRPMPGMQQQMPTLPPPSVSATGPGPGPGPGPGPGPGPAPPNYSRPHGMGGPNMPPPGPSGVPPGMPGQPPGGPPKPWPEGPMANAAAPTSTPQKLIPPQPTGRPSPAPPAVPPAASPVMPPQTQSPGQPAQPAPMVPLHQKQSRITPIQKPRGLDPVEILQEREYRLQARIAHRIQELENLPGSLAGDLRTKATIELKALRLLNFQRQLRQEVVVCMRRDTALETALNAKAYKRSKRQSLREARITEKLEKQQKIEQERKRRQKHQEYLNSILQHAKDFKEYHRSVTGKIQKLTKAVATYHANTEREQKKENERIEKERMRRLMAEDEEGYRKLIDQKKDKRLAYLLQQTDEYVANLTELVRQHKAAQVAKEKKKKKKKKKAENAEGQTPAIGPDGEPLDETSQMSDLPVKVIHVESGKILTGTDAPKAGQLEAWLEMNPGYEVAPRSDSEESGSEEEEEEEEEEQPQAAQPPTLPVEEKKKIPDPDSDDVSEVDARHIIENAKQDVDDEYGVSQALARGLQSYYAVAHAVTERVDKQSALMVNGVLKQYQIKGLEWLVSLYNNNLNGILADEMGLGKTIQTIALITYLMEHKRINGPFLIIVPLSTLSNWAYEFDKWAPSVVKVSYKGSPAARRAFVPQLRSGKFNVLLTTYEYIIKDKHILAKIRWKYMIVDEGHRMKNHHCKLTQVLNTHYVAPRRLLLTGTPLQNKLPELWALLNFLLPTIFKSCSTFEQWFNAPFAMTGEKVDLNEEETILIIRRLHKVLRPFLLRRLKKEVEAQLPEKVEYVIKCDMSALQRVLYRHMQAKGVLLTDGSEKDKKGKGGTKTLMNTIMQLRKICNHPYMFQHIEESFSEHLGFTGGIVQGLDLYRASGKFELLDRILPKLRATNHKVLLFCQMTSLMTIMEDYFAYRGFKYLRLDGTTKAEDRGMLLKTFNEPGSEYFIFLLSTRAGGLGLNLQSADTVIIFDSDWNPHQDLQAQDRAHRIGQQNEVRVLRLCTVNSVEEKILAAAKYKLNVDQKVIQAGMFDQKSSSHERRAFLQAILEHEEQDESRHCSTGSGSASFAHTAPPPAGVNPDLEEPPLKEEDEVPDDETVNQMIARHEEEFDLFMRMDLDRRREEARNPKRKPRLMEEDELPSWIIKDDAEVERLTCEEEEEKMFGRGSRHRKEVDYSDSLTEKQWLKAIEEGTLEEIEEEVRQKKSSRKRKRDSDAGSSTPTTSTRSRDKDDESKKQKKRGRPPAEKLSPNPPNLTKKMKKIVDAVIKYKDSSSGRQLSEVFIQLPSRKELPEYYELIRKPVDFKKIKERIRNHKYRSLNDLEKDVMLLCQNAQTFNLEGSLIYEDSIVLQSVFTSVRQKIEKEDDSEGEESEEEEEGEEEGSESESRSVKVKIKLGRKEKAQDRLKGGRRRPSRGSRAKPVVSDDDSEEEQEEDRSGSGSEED
T1 sequence (P51531 whole entry, the tested form may be a part): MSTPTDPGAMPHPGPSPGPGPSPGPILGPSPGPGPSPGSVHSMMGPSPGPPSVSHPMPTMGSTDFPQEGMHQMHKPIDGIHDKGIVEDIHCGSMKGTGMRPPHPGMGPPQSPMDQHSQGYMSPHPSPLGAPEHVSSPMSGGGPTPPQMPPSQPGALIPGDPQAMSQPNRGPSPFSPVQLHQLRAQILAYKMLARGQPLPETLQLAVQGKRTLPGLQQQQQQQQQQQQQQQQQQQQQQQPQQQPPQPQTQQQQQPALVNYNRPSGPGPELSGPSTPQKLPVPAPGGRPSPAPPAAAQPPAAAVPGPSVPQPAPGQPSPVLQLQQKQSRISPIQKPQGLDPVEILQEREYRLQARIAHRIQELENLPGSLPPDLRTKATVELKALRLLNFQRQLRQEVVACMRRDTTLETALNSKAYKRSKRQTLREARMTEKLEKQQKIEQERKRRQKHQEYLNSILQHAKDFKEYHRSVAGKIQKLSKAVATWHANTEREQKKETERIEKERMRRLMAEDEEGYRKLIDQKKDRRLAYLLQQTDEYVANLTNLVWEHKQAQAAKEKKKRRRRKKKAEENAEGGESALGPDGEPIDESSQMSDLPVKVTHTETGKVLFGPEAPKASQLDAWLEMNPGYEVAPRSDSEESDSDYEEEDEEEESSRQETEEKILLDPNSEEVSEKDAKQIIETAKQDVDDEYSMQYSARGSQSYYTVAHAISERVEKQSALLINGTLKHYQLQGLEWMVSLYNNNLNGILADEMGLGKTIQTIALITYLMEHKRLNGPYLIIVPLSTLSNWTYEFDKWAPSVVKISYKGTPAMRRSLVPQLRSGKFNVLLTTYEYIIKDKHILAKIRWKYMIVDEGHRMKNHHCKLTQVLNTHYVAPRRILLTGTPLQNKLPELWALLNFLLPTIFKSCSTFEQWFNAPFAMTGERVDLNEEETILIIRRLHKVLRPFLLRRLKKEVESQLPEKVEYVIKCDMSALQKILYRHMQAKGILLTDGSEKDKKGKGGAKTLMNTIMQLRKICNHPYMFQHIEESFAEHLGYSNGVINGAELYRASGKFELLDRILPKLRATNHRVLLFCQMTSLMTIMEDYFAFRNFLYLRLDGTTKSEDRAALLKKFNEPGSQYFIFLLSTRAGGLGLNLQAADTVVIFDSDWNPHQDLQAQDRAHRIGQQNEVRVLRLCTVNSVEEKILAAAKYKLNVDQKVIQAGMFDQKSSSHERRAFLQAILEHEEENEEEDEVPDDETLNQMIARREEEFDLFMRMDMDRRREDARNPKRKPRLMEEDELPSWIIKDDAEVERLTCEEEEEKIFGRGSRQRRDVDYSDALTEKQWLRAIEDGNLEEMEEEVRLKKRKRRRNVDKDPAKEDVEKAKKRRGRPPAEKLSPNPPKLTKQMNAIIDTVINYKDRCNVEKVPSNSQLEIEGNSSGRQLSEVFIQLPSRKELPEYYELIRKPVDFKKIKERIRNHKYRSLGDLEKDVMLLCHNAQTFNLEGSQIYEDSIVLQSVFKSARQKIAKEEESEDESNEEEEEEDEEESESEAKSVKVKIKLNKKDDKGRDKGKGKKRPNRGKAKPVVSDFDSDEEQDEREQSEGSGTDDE

Turning to `Cc1ncsc1-c1ccc([C@H](C)NC(=O)[C@@H]2C[C@@H](O)CN2C(=O)[C@@H](c2cc(-c3cnc(N4CC5(CC(c6sc7nnc(-c8ccccc8O)cc7c6C)C5)C4)nc3)no2)C(C)C)cc1` [Compound 46, (2S,4R)-4-hydroxy-1-((R)-2-(3-(2-(6-(3-(2-hydroxyphenyl)-5-methylthieno[2,3-c]pyridazin-6-yl)-2-azaspiro[3.3]heptan-2-yl)pyrimidin-5-yl)isoxazol-5-yl)-3-methylbutanoyl)-N-((S)-1-(4-(4-methylthiazol-5-yl)phenyl)ethyl)pyrrolidine-2-carboxamide], on HiBit-BRM fusion protein, the “BRM HiBit Degradation Maximum (%)” value is given as “A (“A” indicates maximum degradation ≥75%)” and the DC50 is under 0.01 µM. Also, in assay [1], the Dmax was under 50% and the DC50 is over 1 µM.
On to `Cc1ncsc1-c1ccc([C@H](C)NC(=O)[C@@H]2C[C@@H](O)CN2C(=O)[C@@H](c2cc(N3C[C@@H]4[C@H](C3)[C@H]4c3cc4nnc(-c5ccccc5O)cc4s3)no2)C(C)C)cc1` [Compound 70, (2S,4R)-4-hydroxy-1-((2R)-2-(3-((1R,5S)-6-(3-(2-hydroxyphenyl)thieno[3,2-c]pyridazin-6-yl)-3-azabicyclo[3.1.0]hexan-3-yl)isoxazol-5-yl)-3-methylbutanoyl)-N-((S)-1-(4-(4-methylthiazol-5-yl)phenyl)ethyl)pyrrolidine-2-carboxamide], for which, on HiBit-BRM fusion protein, the “BRM HiBit Degradation Maximum (%)” value is listed as “B (“B” indicates maximum degradation ≥50%)” and the DC50 was under 0.01 µM. Further, the Dmax in assay [1] was under 50%.
In the same order, the values of `COc1cc(-c2cc([C@H](C(=O)N3C[C@H](O)C[C@H]3C(=O)N[C@@H](C)c3ccc(-c4scnc4C)cc3)C(C)C)on2)cnc1N1CCC(c2sc3nnc(-c4ccccc4O)cc3c2C)CC1` [Compound 90, (2S,4R)-4-hydroxy-1-((R)-2-(3-(6-(4-(3-(2-hydroxyphenyl)-5-methylthieno[2,3-c]pyridazin-6-yl)piperidin-1-yl)-5-methoxypyridin-3-yl)isoxazol-5-yl)-3-methylbutanoyl)-N-((S)-1-(4-(4-methylthiazol-5-yl)phenyl)ethyl)pyrrolidine-2-carboxamide] are “A (“A” indicates maximum degradation ≥75%)”, under 0.01 µM and under 50%.
Consider `Cc1ncsc1-c1ccc([C@H](C)NC(=O)[C@@H]2C[C@@H](O)CN2C(=O)[C@@H](c2cc(-c3ccc(N4CC(c5sc6nnc(-c7ccccc7O)cc6c5C)C4)nc3)no2)C(C)C)cc1` [Compound 49, (2S,4R)-4-hydroxy-1-((R)-2-(3-(6-(3-(3-(2-hydroxyphenyl)-5-methylthieno[2,3-c]pyridazin-6-yl)azetidin-1-yl)pyridin-3-yl)isoxazol-5-yl)-3-methylbutanoyl)-N-((S)-1-(4-(4-methylthiazol-5-yl)phenyl)ethyl)pyrrolidine-2-carboxamide], for which, on HiBit-BRM fusion protein, the “BRM HiBit Degradation Maximum (%)” value is recorded as “B (“B” indicates maximum degradation ≥50%)” and the DC50 was over 0.01 µM. Moreover, in assay [1], the Dmax is under 50% and the DC50 was over 1 µM.
In the same order, the values of `Cc1ncsc1-c1ccc([C@H](C)NC(=O)[C@@H]2C[C@@H](O)CN2C(=O)[C@@H](c2cc(-c3cnc(N4CC[C@H](c5sc6nnc(-c7ccccc7O)cc6c5C)C[C@@H]4C)nc3)no2)C(C)C)cc1` [Compound 27, (2S,4R)-4-hydroxy-1-((R)-2-(3-(2-((2S,4S)-4-(3-(2-hydroxyphenyl)-5-methylthieno[2,3-c]pyridazin-6-yl)-2-methylpiperidin-1-yl)pyrimidin-5-yl)isoxazol-5-yl)-3-methylbutanoyl)-N-((S)-1-(4-(4-methylthiazol-5-yl)phenyl)ethyl)pyrrolidine-2-carboxamide] are “A (“A” indicates maximum degradation ≥75%)”, under 0.01 µM, under 50% and over 1 µM.
In the same order, the values of `Cc1ncsc1-c1ccc([C@H](C)NC(=O)[C@@H]2C[C@@H](O)CN2C(=O)[C@@H](c2cc(N3CC(c4sc5nnc(-c6ccccc6O)cc5c4C)C3)no2)C(C)C)cc1` [Compound 19, (2S,4R)-4-hydroxy-1-((R)-2-(3-(3-(3-(2-hydroxyphenyl)-5-methylthieno[2,3-c]pyridazin-6-yl)azetidin-1-yl)isoxazol-5-yl)-3-methylbutanoyl)-N-((S)-1-(4-(4-methylthiazol-5-yl)phenyl)ethyl)pyrrolidine-2-carboxamide] are 2%, over 1 µM, under 50% and over 1 µM.
In the same order, the values of `Cc1ncsc1-c1ccc([C@H](C)NC(=O)[C@@H]2C[C@@H](O)CN2C(=O)[C@@H](c2cc(N3CCN(c4ncc(-c5sc6nnc(-c7ccccc7O)cc6c5C)cn4)CC3)no2)C(C)C)cc1` (single isomer, unassigned) [Compound 31] are “B (“B” indicates maximum degradation ≥50%)”, over 0.01 µM, under 50% and over 1 µM.
`Cc1ncsc1-c1ccc([C@H](C)NC(=O)[C@@H]2C[C@@H](O)CN2C(=O)[C@@H](c2cc(-c3cnc(N4CCC(c5cc6nnc(-c7ccccc7O)cc6s5)CC4)nc3)no2)C(C)C)cc1` [Compound 55, (2S,4R)-4-hydroxy-1-((R)-2-(3-(2-(4-(3-(2-hydroxyphenyl)thieno[3,2-c]pyridazin-6-yl)piperidin-1-yl)pyrimidin-5-yl)isoxazol-5-yl)-3-methylbutanoyl)-N-((S)-1-(4-(4-methylthiazol-5-yl)phenyl)ethyl)pyrrolidine-2-carboxamide]: on HiBit-BRM fusion protein, the “BRM HiBit Degradation Maximum (%)” value is on record as “A (“A” indicates maximum degradation ≥75%)” and the DC50 was under 0.01 µM. Also, in assay [1], the Dmax is under 50% and the DC50 was over 1 µM.
Regarding `Cc1ncsc1-c1ccc([C@H](C)NC(=O)[C@@H]2C[C@@H](O)CN2C(=O)[C@@H](c2cc(C3CCN(c4ncc(-c5sc6nnc(-c7ccccc7O)cc6c5C)cn4)CC3)no2)C(C)C)cc1` [Compound 32, (2S,4R)-4-hydroxy-1-((R)-2-(3-(1-(5-(3-(2-hydroxyphenyl)-5-methylthieno[2,3-c]pyridazin-6-yl)pyrimidin-2-yl)piperidin-4-yl)isoxazol-5-yl)-3-methylbutanoyl)-N-((S)-1-(4-(4-methylthiazol-5-yl)phenyl)ethyl)pyrrolidine-2-carboxamide], on HiBit-BRM fusion protein, the “BRM HiBit Degradation Maximum (%)” value is “C (“C” indicates maximum degradation <50%)” and the DC50 is over 1 µM. Also, in assay [1], the Dmax was under 50% and the DC50 is over 1 µM.
Turning to `Cc1ncsc1-c1ccc([C@H](C)NC(=O)[C@@H]2C[C@@H](O)CN2C(=O)[C@@H](c2cc(N3CCC4(CCC(c5sc6nnc(-c7ccccc7O)cc6c5C)CC4)CC3)no2)C(C)C)cc1` [Compound 85, (2S,4R)-4-hydroxy-1-((R)-2-(3-(9-(3-(2-hydroxyphenyl)-5-methylthieno[2,3-c]pyridazin-6-yl)-3-azaspiro[5.5]undecan-3-yl)isoxazol-5-yl)-3-methylbutanoyl)-N-((S)-1-(4-(4-methylthiazol-5-yl)phenyl)ethyl)pyrrolidine-2-carboxamide], on HiBit-BRM fusion protein, the “BRM HiBit Degradation Maximum (%)” value is “A (“A” indicates maximum degradation ≥75%)” and the DC50 was over 0.01 µM. Further, the Dmax in assay [1] is under 50%.
